# Where two headings read alike, the source gives them in different places.
# Columns and labels:
# [1] = system: Phakopsora pachyrhizi (F129L); experiment: Protective control of soybean rust on soybeans (PHAKPA P2); assay type: in vivo; settings: for % PHAKPA (F129L) Disease level, P2 at 4 ppm: protective P2, 4 ppm; for % PHAKPA (F129L) Disease level, P2 at 16 ppm: protective P2, 16 ppm
# [2] = system: Phakopsora pachyrhizi (F129L); experiment: Protective control of soybean rust on soybeans (PHAKPA P6); assay type: in vivo; settings: for % PHAKPA (F129L) Disease level, P6 at 16 ppm: protective P6, 16 ppm; for % PHAKPA (F129L) Disease level, P6 at 4 ppm: protective P6, 4 ppm
# Septoria tritici = experiment: Micro titer plate test against Septoria tritici causing leaf blotch on wheat (SEPTTR); assay type: cell-based; settings: 0.25 ppm
# Leptosphaeria nodorum = experiment: Micro titer plate test against Leptosphaeria nodorum causing wheat leaf spots (LEPTNO); assay type: cell-based; settings: for activity at 0.063 ppm: Parastagonospora nodorum, 168 h, read-out: Fungal growth (%) LEPTNO
# [3] = system: Alternaria solani (F129L); experiment: Micro titer plate test against Alternaria solani causing early blight (ALTESO F129L); assay type: cell-based; settings: relative growth vs compound-free control (100%), 7 days
# Cercospora sojina = experiment: microbe, parasite or virus in culture; assay type: cell-based; settings: 168 h, read-out: Fungal growth (%) CERCSO
# Pyrenophora teres (wt) = experiment: Micro titer plate test against Pyrenophora teres causing net blotch on barley (PYRNTE wt); assay type: cell-based
# Alternaria solani (wt) = experiment: microbe, parasite or virus in culture; assay type: cell-based
# [4] = system: Colletotrichum orbiculare; experiment: Micro titer plate test against Colletotrichum orbiculare causing anthracnose (COLLLA); assay type: cell-based
# [5] = system: Pyrenophora teres (F129L); experiment: Micro titer plate test against Pyrenophora teres causing net blotch on barley (PYRNTE F129L); assay type: cell-based; settings: 0.25 ppm, relative growth vs compound-free control (100%), 7 days
# Pyricularia oryzae = experiment: microbe, parasite or virus in culture; assay type: cell-based
# Microdochium nivale = assay type: cell-based
# [6] = protective, inoculation six days after spraying, % diseased leaf area
# [7] = relative growth vs compound-free control (100%), 7 days
# [8] = 0.063 ppm, relative growth vs compound-free control (100%), 7 days
# [9] = protective, inoculation 2 days after spraying, % diseased leaf area
compound,measurement,setting,value
"CNC(=O)/C(=N/OC)c1cccc(C)c1CO/N=C(\SC)c1cccc(Cl)c1 [drawing 981, reference compound]","% PHAKPA (F129L) Disease level, P2 at 4 ppm",[1],20%
same,"% PHAKPA (F129L) Disease level, P6 at 16 ppm",[2],9%
CNC(=O)/C(=N/OC)c1cccc(C)c1CO/N=C(\SC)c1cccc(C(F)(F)F)c1 [reference compound],"% PHAKPA (F129L) Disease level, P6 at 4 ppm",[2],43%
CNC(=O)/C(=N/OC)c1cccc(C)c1CO/N=C(\CC(F)(F)F)c1ccc(F)cc1C [compound 394],"% PHAKPA (F129L) Disease level, P2 at 4 ppm",[1],9%
same,"% PHAKPA (F129L) Disease level, P2 at 16 ppm",[1],3%
same,"% PHAKPA (F129L) Disease level, P6 at 4 ppm",[2],12%
same,"% PHAKPA (F129L) Disease level, P6 at 16 ppm",[2],2%
"CO/N=C(/C(=O)OC)c1cccc(C)c1CO/N=C(/c1cccc(Cl)c1)C1CC1 [drawing 983, reference compound]","% PHAKPA (F129L) Disease level, P2 at 4 ppm",[1],83%
same,"% PHAKPA (F129L) Disease level, P6 at 16 ppm",[2],87%
CO/N=C(/C(=O)OC)c1cccc(C)c1CO/N=C(\C)c1cccc(C(F)(F)F)c1 [compound 9],PHAKPA (F129L) Disease level (%) P6 at 16 ppm,[2]; [6],4%
same,"% PHAKPA (F129L) Disease level, P6 at 16 ppm",[2],1%
C=Cc1cccc(/C(=N\OC)C(=O)NC)c1CO/N=C(\C)c1ccccc1 [compound 400],"% PHAKPA (F129L) Disease level, P2 at 4 ppm",[1],2%
same,"% PHAKPA (F129L) Disease level, P2 at 16 ppm",[1],0%
same,"% PHAKPA (F129L) Disease level, P6 at 4 ppm",[2],8%
same,"% PHAKPA (F129L) Disease level, P6 at 16 ppm",[2],0%
CNC(=O)/C(=N/OC)c1cccc(C)c1CO/N=C(\C)c1ccccc1C [compound 127],"% PHAKPA (F129L) Disease level, P2 at 4 ppm",[1]; soybean rust F129L,90%
same,"% PHAKPA (F129L) Disease level, P2 at 16 ppm",[1]; soybean rust F129L,44%
same,"% PHAKPA (F129L) Disease level, P6 at 4 ppm",[2]; soybean rust F129L,93%
same,"% PHAKPA (F129L) Disease level, P6 at 16 ppm",[2]; soybean rust F129L,62%
CO/N=C(/C(=O)OC)c1cccc(C)c1CO/N=C(/c1cccc(C)c1)C1CC1 [drawing 953],Fungal growth (%) SEPTTR,Septoria tritici; [7],89%
CNC(=O)/C(=N/OC)c1cccc(C)c1CO/N=C(\SC)c1cccc(Cl)c1 [drawing 968],Fungal growth (%) SEPTTR,Septoria tritici,59%
CNC(=O)/C(=N/OC)c1cccc(C)c1CO/N=C(\C)c1cccc(C(F)(F)F)c1 [compound 8],Fungal growth (%) LEPTNO,Leptosphaeria nodorum; [8],70%
same,PHAKPA (F129L) Disease level (%) P6 at 4 ppm,"[2]; 4 ppm, protective, inoculation six days after spraying, % diseased leaf area",13%
same,"% PHAKPA (F129L) Disease level, P6 at 4 ppm",[2],1%
same,Fungal growth (%) ALTESO F129L,"[3]; 0.016 ppm, listed as Ex. 8",52%
CO/N=C(/C(=O)OC)c1cccc(C)c1CO/N=C(/c1cccc(Cl)c1)C1CC1 [drawing 963],Fungal growth (%) SEPTTR,Septoria tritici,39%
"CO/N=C(/C(=O)OC)c1cccc(C)c1CO/N=C(\C)c1cccc(C)c1 [drawing 956, reference compound]",activity at 4 ppm,Cercospora sojina,67%
same,activity at 0.25 ppm,"Pyrenophora teres (wt); Pyrenophora teres, 168 h, 0.25 ppm, relative growth vs compound-free control (100%), 7 days, read-out: Fungal growth (%) PYRNTE wt",53%
same,activity at 0.063 ppm,Leptosphaeria nodorum; [8],65%
same,activity at 0.016 ppm,"[3]; Alternaria solani, 168 h, 0.016 ppm, read-out: Fungal growth (%) ALTESO F129L",81%
same,activity at 0.016 ppm,"Alternaria solani (wt); Alternaria solani, 168 h, read-out: Fungal growth (%) ALTESO wt",93%
"CO/N=C(/C(=O)OC)c1cccc(C)c1CO/N=C(\SC)c1cccc(Cl)c1 [drawing 984, reference compound]","% PHAKPA (F129L) Disease level, P2 at 4 ppm",[1],47%
same,"% PHAKPA (F129L) Disease level, P6 at 16 ppm",[2],18%
CO/N=C(/C(=O)OC)c1cccc(C)c1CO/N=C(\OC)c1cccc(C(F)(F)F)c1 [reference compound],"% PHAKPA (F129L) Disease level, P6 at 16 ppm",[2],23%
CNC(=O)/C(=N/OC)c1cccc(C)c1CO/N=C(\OC)c1cccc(C)c1 [drawing 959],Fungal growth (%) SEPTTR,Septoria tritici,100%
CNC(=O)/C(=N/OC)c1cccc(C)c1CO/N=C(\OC)c1cccc(C(F)(F)F)c1,Fungal growth (%) SEPTTR,Septoria tritici; [7],77%
CO/N=C(/C(=O)OC)c1cccc(C)c1CO/N=C(\OC)c1cccc(C)c1 [reference compound],"% PHAKPA (F129L) Disease level, P2 at 4 ppm",[1],83%
same,"% PHAKPA (F129L) Disease level, P6 at 16 ppm",[2],57%
CNC(=O)/C(=N/OC)c1cccc(C)c1CO/N=C(\C)c1cccc(C)c1 [compound 77],Fungal growth (%) SEPTTR,Septoria tritici,49%
same,Fungal growth (%) COLLLA,[4]; 0.063 ppm,39%
CNC(=O)/C(=N/OC)c1cccc(C)c1CO/N=C(\C)c1cccc(Cl)c1 [compound 157],Fungal growth (%) PYRNTE wt,Pyrenophora teres (wt); 0.25 ppm,54%
same,PHAKPA (F129L) Disease level (%) P2 at 4 ppm,"[1]; 4 ppm, protective, inoculation 2 days after spraying, % diseased leaf area",0%
same,"% PHAKPA (F129L) Disease level, P2 at 4 ppm",[1],1%
same,"% PHAKPA (F129L) Disease level, P6 at 16 ppm",[2],1%
same,Fungal growth (%) SEPTTR,Septoria tritici,20%
same,Fungal growth (%) COLLLA,[4]; 0.063 ppm,63%
"CNC(=O)/C(=N/OC)c1cccc(C)c1CO/N=C(\OC)c1cccc(C)c1 [drawing 976, reference compound]","% PHAKPA (F129L) Disease level, P6 at 16 ppm",[2],45%
"CO/N=C(/C(=O)OC)c1cccc(C)c1CO/N=C(/c1cccc(C)c1)C1CC1 [drawing 973, reference compound]","% PHAKPA (F129L) Disease level, P2 at 4 ppm",[1],80%
same,"% PHAKPA (F129L) Disease level, P6 at 16 ppm",[2],37%
CO/N=C(/C(=O)OC)c1cccc(C)c1CO/N=C(\C)c1cccc(OC(F)(F)F)c1 [compound 28],PHAKPA (F129L) Disease level (%) P2 at 16 ppm,[1]; [9],30%
same,"% PHAKPA (F129L) Disease level, P2 at 16 ppm",[1]; soybean rust F129L,0%
same,PHAKPA (F129L) Disease level (%) P6 at 16 ppm,[2]; [6],18%
same,"% PHAKPA (F129L) Disease level, P6 at 16 ppm",[2]; soybean rust F129L,0%
CO/N=C(/C(=O)OC)c1cccc(C)c1CO/N=C(\C)c1cccc(C)c1 [compound 76],"% PHAKPA (F129L) Disease level, P2 at 4 ppm",[1],35%
same,PHAKPA (F129L) Disease level (%) P6 at 16 ppm,[2]; [6],0%
same,"% PHAKPA (F129L) Disease level, P6 at 16 ppm",[2],4%
same,Fungal growth (%) SEPTTR,Septoria tritici; [7],0%
"CNC(=O)/C(=N/OC)c1cccc(C)c1CO/N=C(/c1cccc(C)c1)C1CC1 [drawing 977, reference compound]","% PHAKPA (F129L) Disease level, P2 at 4 ppm",[1],67%
same,"% PHAKPA (F129L) Disease level, P6 at 16 ppm",[2],67%
CNC(=O)/C(=N/OC)c1cccc(C)c1CO/N=C(/c1cccc(C)c1)C1CC1 [drawing 960],Fungal growth (%) SEPTTR,Septoria tritici,87%
CO/N=C(/C(=O)OC)c1cccc(C)c1CO/N=C(\SC)c1cccc(C)c1 [drawing 952],Fungal growth (%) SEPTTR,Septoria tritici; [7],61%
CNC(=O)/C(=N/OC)c1cccc(C)c1CO/N=C(\C)c1cc(F)cc(F)c1 [compound 84],Fungal growth (%) PYRNTE wt,Pyrenophora teres (wt),39%
same,"% PHAKPA (F129L) Disease level, P2 at 4 ppm",[1]; soybean rust F129L,0%
same,"% PHAKPA (F129L) Disease level, P2 at 16 ppm",[1]; soybean rust F129L,0%
same,Fungal growth (%) LEPTNO,Leptosphaeria nodorum,60%
same,Fungal growth (%) PYRNTE F129L,[5],49%
same,"% PHAKPA (F129L) Disease level, P6 at 4 ppm",[2]; soybean rust F129L,0%
same,"% PHAKPA (F129L) Disease level, P6 at 16 ppm",[2]; soybean rust F129L,0%
same,Fungal growth (%) ALTEO F129L,[3]; 4 ppm,39%
same,Fungal growth (%) COLLLA,[4],33%
same,Fungal growth (%) PYRIOR,"Pyricularia oryzae; 0.016 ppm, relative growth vs compound-free control (100%), 7 days",48%
same,Fungal growth (%) MONGNI,Microdochium nivale,32%
same,Fungal growth (%) ALTESO wt,Alternaria solani (wt),43%
CO/N=C(/C(=O)OC)c1cccc(C)c1CO/N=C(\C)c1cccc(Cl)c1 [compound 153],Fungal growth (%) PYRNTE wt,Pyrenophora teres (wt); 0.25 ppm,31%
same,"% PHAKPA (F129L) Disease level, P2 at 4 ppm",[1],19%
same,Fungal growth (%) LEPTNO,Leptosphaeria nodorum; 0.063 ppm,55%
same,PHAKPA (F129L) Disease level (%) P6 at 16 ppm,[2]; [6],1%
same,"% PHAKPA (F129L) Disease level, P6 at 16 ppm",[2],5%
same,Fungal growth (%) SEPTTR,Septoria tritici,0%
same,Fungal growth (%) COLLLA,[4]; 0.063 ppm,55%
CO/N=C(/C(=O)OC)c1cccc(C)c1CO/N=C(\C)c1ccccc1F [Ex. 1],PHAKPA (F129L) Disease level (%) P2 at 16 ppm,[1]; [9],28%
same,"% PHAKPA (F129L) Disease level, P2 at 4 ppm",[1]; soybean rust F129L,80%
same,"% PHAKPA (F129L) Disease level, P2 at 16 ppm",[1]; soybean rust F129L,27%
same,PHAKPA (F129L) Disease level (%) P6 at 16 ppm,[2]; [6],47%
same,"% PHAKPA (F129L) Disease level, P6 at 4 ppm",[2]; soybean rust F129L,90%
same,"% PHAKPA (F129L) Disease level, P6 at 16 ppm",[2]; soybean rust F129L,56%
CO/N=C(/C(=O)OC)c1cccc(C)c1CO/N=C(\OC)c1cccc(OC(F)(F)F)c1 [reference compound],activity at 4 ppm,Cercospora sojina,56%
same,activity at 0.063 ppm,Leptosphaeria nodorum; [8],100%
same,activity at 0.016 ppm,"Pyricularia oryzae; Pyricularia oryzae, 168 h, read-out: Fungal growth (%) PYRIOR",58%
"CO/N=C(/C(=O)OC)c1cccc(C)c1CO/N=C(\SC)c1cccc(C)c1 [drawing 974, reference compound]","% PHAKPA (F129L) Disease level, P2 at 4 ppm",[1],60%
same,"% PHAKPA (F129L) Disease level, P6 at 16 ppm",[2],30%
CO/N=C(/C(=O)OC)c1cccc(C)c1CO/N=C(\SC)c1cccc(Cl)c1 [drawing 962],Fungal growth (%) SEPTTR,Septoria tritici,39%
CNC(=O)/C(=N/OC)c1cccc(C)c1CO/N=C(\C)c1c(Cl)cc(Cl)cc1OC(F)(F)F [compound 428],"% PHAKPA (F129L) Disease level, P2 at 4 ppm",[1],70%
same,"% PHAKPA (F129L) Disease level, P2 at 16 ppm",[1],11%
same,"% PHAKPA (F129L) Disease level, P6 at 4 ppm",[2],83%
same,"% PHAKPA (F129L) Disease level, P6 at 16 ppm",[2],20%
